Patent US20050261290A1, “Novel compounds of proline and morpholine derivatives” (priority 2004, published 2005)
Like-named read-outs stand apart in the source and are kept apart here.

Target: human 11b-hsd-1 (Homo sapiens, UniProt P28845)
Test: Inhibition constant Ki of human 11b-hsd-1 (3H-cortisone to 3H-cortisol conversion, HPLC)
Format: biochemical
Conditions: for Ki: apparent Ki, read-out: Ki app

Sequence of human 11b-hsd-1 (P28845 whole entry): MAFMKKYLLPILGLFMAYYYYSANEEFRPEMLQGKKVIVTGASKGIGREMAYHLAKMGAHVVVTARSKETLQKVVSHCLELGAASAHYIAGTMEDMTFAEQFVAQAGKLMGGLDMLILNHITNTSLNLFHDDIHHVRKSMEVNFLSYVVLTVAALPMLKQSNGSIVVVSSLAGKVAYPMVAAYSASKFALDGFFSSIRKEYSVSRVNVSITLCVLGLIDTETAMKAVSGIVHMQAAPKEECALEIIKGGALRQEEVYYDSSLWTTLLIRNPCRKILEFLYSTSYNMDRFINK

O=C(NC1C2CC3CC(C2)CC1C3)[C@@H]1C[C@H](Oc2ccccc2F)CN1 (some centres unmarked) [Example 341]
inhibition at 0.1 µM (0.1 μM compound): 100%
Ki: 0.0007 µM

CC(C)CN1C[C@H](O)C[C@@H]1C(=O)NC1CCCCC1 [Example 29]
Ki (human 11b-hsd-1): 0.0392 µM
inhibition at 0.1 µM (compound at 0.1 μM): 69%

O=C(NCc1ccc(F)cc1F)[C@H]1CCCN1Cc1ccc(Cl)cc1 [Example 243]
inhibition at 0.1 µM (0.1 μM compound): 84.9%
Ki: 0.015 µM

O=C(NC1CCCCC1)[C@H]1CCCN1CCC(F)(F)F [Example 127]
inhibition at 0.1 µM (compound at 0.1 μM): 100%

COc1cccc(CNC(=O)[C@H]2CCCN2CC(C)C)c1 [Example 260]
inhibition at 0.1 µM (0.1 μM compound): 89.6%
Ki: 0.016 µM

CC(C)CN1CCC[C@@H]1C(=O)N[C@H](C)c1ccccc1 [Example 287]
inhibition at 0.1 µM (0.1 μM compound): 98.7%
Ki: 0.00339 µM

CC(C)N1CCC(CN2C[C@H](O)C[C@@H]2C(=O)NC2C3CC4CC(C3)CC2C4)CC1 (some centres unmarked) [Example 76]
inhibition at 0.1 µM (compound at 0.1 μM): 14%

O=C(NCc1ccc(F)cc1F)[C@H]1COCCN1Cc1ccccc1 [Example 280]
inhibition at 0.1 µM (0.1 μM compound): 81.6%
Ki: 0.049 µM

CCCN1CCC[C@H](C(=O)NC2C3CC4CC(C3)CC2C4)C1 (some centres unmarked) [Example 125]
inhibition at 0.1 µM (compound at 0.1 μM): 81%

O=C(NCc1ccc(F)cc1)[C@H]1CCCN1Cc1ccc(Cl)cc1 [Example 235]
inhibition at 0.1 µM (0.1 μM compound): 83.8%
Ki: 0.025 µM

CN(C(=O)[C@@H]1CSCN1Cc1ccc(Cl)cc1)C1CCCCC1 [Example 192]
inhibition at 0.1 µM (0.1 μM compound): 100%
Ki: 0.0096 µM

O=C(NCc1ccccc1Cl)[C@H]1CCCN1CCC(F)(F)F [Example 265]
inhibition at 0.1 µM (0.1 μM compound): 86%
Ki: 0.0041 µM

N#Cc1cccc(CN2CCOC[C@@H]2C(=O)NC2C3CC4CC(C3)CC2C4)c1 (some centres unmarked) [Example 275]
inhibition at 0.1 µM (0.1 μM compound): 100%
Ki: 0.0015 µM

CCN(CC)CCN1CCC[C@@H]1C(=O)NC1C2CC3CC(C2)CC1C3 (some centres unmarked) [Example 109]
inhibition at 0.1 µM (compound at 0.1 μM): 77%

NC(=O)CN1CCC[C@@H]1C(=O)NC1C2CC3CC(C2)CC1C3 (some centres unmarked) [Example 19]
Ki (human 11b-hsd-1): 0.017 µM
inhibition at 0.1 µM (compound at 0.1 μM): 86%

CCOc1ccccc1CNC(=O)[C@H]1COCCN1CC(C)C [Example 35]
Ki (human 11b-hsd-1): 0.0226 µM
inhibition at 0.1 µM (compound at 0.1 μM): 82%

CCCN1CCC[C@@H]1C(=O)NCc1ccc(OC)cc1 [Example 218]
inhibition at 0.1 µM (0.1 μM compound): 91.1%
Ki: 2.5 µM

O=C(NCc1ccccc1F)[C@H]1CCCN1Cc1ccccc1 [Example 212]
inhibition at 0.1 µM (0.1 μM compound): 77.6%
Ki: 0.085 µM

O=C(NC1C2CC3CC(C2)CC1C3)[C@H]1NCC[C@@H]1CC1CCCCC1 (some centres unmarked) [Example 366]
inhibition at 0.1 µM (0.1 μM compound): 94.9%
Ki: 0.015 µM

CCCN1CCCC1(C)C(=O)NC1CCCCC1 (centres unmarked) [Example 60]
Ki (human 11b-hsd-1): 0.025 µM
inhibition at 0.1 µM (compound at 0.1 μM): 79%

CCN1CCC[C@@H]1C(=O)NC1CCCCC1 [Example 84]
inhibition at 0.1 µM (compound at 0.1 μM): 62%

O=C(NCc1ccc(F)cc1)[C@H]1CCCN1Cc1ccccc1 [Example 214]
inhibition at 0.1 µM (0.1 μM compound): 82.7%
Ki: 0.059 µM

O=C(NC1CCCCC1)[C@H]1C[C@@H](O)CN1Cc1ccc(F)cc1 [Example 31]
inhibition at 0.1 µM (compound at 0.1 μM): 53%

O=C(NC1CCCCC1)[C@H]1CCCN1CC1CCCO1 (some centres unmarked) [Example 98]
% inh @ 0.1 μM (compound at 0.1 μM, 0.1 µM): 41%

CCc1ccc(O[C@@H]2CN[C@H](C(=O)NC3C4CC5CC(C4)CC3C5)C2)c(OC)c1 (some centres unmarked) [Example 354]
inhibition at 0.1 µM (0.1 μM compound): 100%
Ki: 0.0021 µM

CC(C)CN1CCC[C@@H]1C(=O)NCc1cccc(Cl)c1 [Example 223]
inhibition at 0.1 µM (0.1 μM compound): 86.3%
Ki: 0.026 µM

Cc1ccc(CNC(=O)[C@H]2CCCN2CCC(F)(F)F)cc1 [Example 326]
inhibition at 0.1 µM (0.1 μM compound): 69.4%
Ki: 0.069 µM

CC1(C)CC(NC(=O)C2COCCN2CC2CCCCC2)CC(C)(C)C1 (centres unmarked) [Example 188]
Ki (human 11b-hsd-1): 0.0017 µM
inhibition at 0.1 µM (compound at 0.1 μM): 100%

N#Cc1ccccc1CN1CCOC[C@@H]1C(=O)N[C@@H]1CCc2ccccc21 [Example 305]
inhibition at 0.1 µM (0.1 μM compound): 98.7%
Ki: 0.0034 µM

O=C(N[C@H]1c2ccccc2C[C@H]1O)[C@H]1CCCN1CC1CCCC1 [Example 293]
inhibition at 0.1 µM (0.1 μM compound): 92.6%
Ki: 0.0224 µM

CC(C)CN1CCC[C@@H]1C(=O)NCC1(O)CCCCC1 [Example 69]
Ki (human 11b-hsd-1): 0.007 µM
inhibition at 0.1 µM (compound at 0.1 μM): 100%

N#Cc1ccc(CN2CCOC[C@@H]2C(=O)NC2C3CC4CC(C3)CC2C4)cc1 (some centres unmarked) [Example 62]
Ki (human 11b-hsd-1): 0.0011 µM
inhibition at 0.1 µM (compound at 0.1 μM): 100%

CCCN1CCC[C@@H]1C(=O)NC1CC2CCC1C2 (some centres unmarked) [Example 92]
% inh @ 0.1 μM (compound at 0.1 μM): 100%

COc1ccccc1CNC(=O)[C@H]1CCCN1CC1CCCC1 [Example 261]
inhibition at 0.1 µM (0.1 μM compound): 100%
Ki: 0.025 µM

CC(C)CN1CSC[C@H]1C(=O)N(C)C1CCCCC1 [Example 195]
inhibition at 0.1 µM (0.1 μM compound): 100%
Ki: 0.013 µM

Cc1cc(F)ccc1O[C@@H]1CN[C@H](C(=O)NC2C3CC4CC(C3)CC2C4)C1 (some centres unmarked) [Example 356]
inhibition at 0.1 µM (0.1 μM compound): 100%
Ki: 0.0014 µM

C[C@@H](NC(=O)[C@H]1CCCN1CC1CCCC1)c1ccccc1 [Example 292]
inhibition at 0.1 µM (0.1 μM compound): 92.1%
Ki: 0.00959 µM

CC1(C)CC(NC(=O)C2COCCN2Cc2cccc(OC(F)F)c2)CC(C)(C)C1 (centres unmarked) [Example 189]
Ki (human 11b-hsd-1): 0.0011 µM
inhibition at 0.1 µM (compound at 0.1 μM): 100%

O=C(NCc1ccccc1Cl)[C@H]1CCCN1Cc1ccccc1 [Example 247]
inhibition at 0.1 µM (0.1 μM compound): 88%
Ki: 0.014 µM

CC(C)CN1CCC[C@@H]1C(=O)NC12CC3CC(CC(C3)C1)C2 [Example 205]
inhibition at 0.1 µM (0.1 μM compound): 100%
Ki: 0.00317 µM

O=C(NCc1ccccc1)[C@H]1CCCN1CC1CCCC1 [Example 226]
inhibition at 0.1 µM (0.1 μM compound): 82.2%
Ki: 0.022 µM

O=C(NC1C2CC3CC(C2)CC1C3)[C@H]1COCCN1CC1CCCC1 (some centres unmarked) [Example 63]
Ki (human 11b-hsd-1): 0.001 µM
inhibition at 0.1 µM (compound at 0.1 μM): 100%

O=C(NC12CC3CC(CC(C3)C1)C2)[C@H]1CSCN1Cc1ccc(Cl)cc1 [Example 202]
inhibition at 0.1 µM (0.1 μM compound): 100%
Ki: 0.0048 µM

CC(=O)NCCN1CCC[C@@H]1C(=O)NC1C2CC3CC(C2)CC1C3 (some centres unmarked) [Example 129, 1-(2-Acetylamino-ethyl)pyrrolidine-2-carboxylic acid adamantan-2-ylamide]
inhibition at 0.1 µM (compound at 0.1 μM): 72%

O=C(NC1CCCCC1)[C@H]1CCCN1CC1CCCO1 (some centres unmarked) [Example 97]
Ki (human 11b-hsd-1): 0.007 µM
% inh @ 0.1 μM (compound at 0.1 μM, 0.1 µM): 100%

N#Cc1ccc(CN2CCC[C@@H]2C(=O)NCc2ccccc2Cl)cc1 [Example 253]
inhibition at 0.1 µM (0.1 μM compound): 100%
Ki: 0.024 µM

CC(C)CN1CCC[C@@H]1C(=O)NCc1ccccc1Cl [Example 257]
inhibition at 0.1 µM (0.1 μM compound): 100%
Ki: 0.0021 µM

CN(C(=O)[C@H]1CSCN1Cc1ccc(Cl)cc1)C1CCCCC1 [Example 194]
inhibition at 0.1 µM (0.1 μM compound): 86.2%
Ki: 0.025 µM

COc1ccccc1CNC(=O)[C@H]1CCCN1Cc1ccc(Cl)cc1 [Example 267]
inhibition at 0.1 µM (0.1 μM compound): 100%
Ki: 0.012 µM

CC(C)(C)OC(=O)N1CCC(CN2CCC[C@@H]2C(=O)NC2C3CC4CC(C3)CC2C4)C1 (some centres unmarked) [Example 114]
inhibition at 0.1 µM (compound at 0.1 μM): 100%

CCN1CCOC[C@@H]1C(=O)NC1C2CC3CC(C2)CC1C3 (stereo partly drawn) [Example 1, (R)-4-Ethyl-morpholine-3-carboxylic acid adamantan-2-ylamide]
Ki (human 11b-hsd-1): 0.0021 µM
inhibition at 0.1 µM (compound at 0.1 μM): 100%

O=C(NC1CCCCC1)[C@H]1COCCN1Cc1ccccc1 [Example 302]
inhibition at 0.1 µM (0.1 μM compound): 99.1%
Ki: 0.0032 µM

O=C(NC1CCCCC1)[C@@H]1C[C@H](Oc2ccc(Cl)c(F)c2)CN1 [Example 373]
inhibition at 0.1 µM (0.1 μM compound): 91.8%
